Results as given in US20080312080A1 (priority 2006, published 2008).

Tested on: Aspergillus parasiticus NRRL 2999
Assay type: cell-based

Row | Substance | aflatoxin production inhibition activity (in words)
1 | (S)-3-aminooctanoyl-(S)-3-aminooctanoyl-L-proline [Example 8] | extremely excellent aflatoxin production inhibition activity
2 | (S)-3-aminooctanoyl-(S)-3-aminooctanoyl-L-alanine [Example 6] | extremely excellent aflatoxin production inhibition activity
3 | (S)-3-aminooctanoyl-(S)-3-aminooctanoyl-glycine [Example 4] | extremely excellent aflatoxin production inhibition activity
